Where “and” joins values, the source holds several entries; their conditions need not be identical. Identical values can stand only once. Marks after values point to notes of the source that are not given here.
Columns and labels:
Aβ plaques [1] = molecular target: T1, Aβ plaques (Homo sapiens, UniProt P05067); conditions: AD brain homogenates using ^18F-florbetapir; ref Choi et al., 2009; cited from earlier work
[2] = In vivo rat whole body PET/CT, interscapular brown adipose tissue; conditions: for IBAT +ATX uptake / Ratio uptake at 4.5 min/uptake at 85 min, IBAT +ATX: atomoxetine preinjection
[3] = In vivo rat PET/CT, brain uptake; conditions: for maximum (peak) activity levels in the various brain regions: 90 min scan; for time to approach plateau in cerebellum (CB): postinjection
Aβ plaques [4] = molecular target: T1, Aβ plaques; experiment: In vitro binding affinity: inhibition of [^3H]PIB binding in human AD brain
Aβ plaques [5] = experiment: Ki using ^125I-TZDM; assay type: binding
Aβ plaques [6] = conditions: using ^125I-TZDM; ref Kung et al., 2003; cited from earlier work
Aβ plaques [7] = molecular target: T1, Aβ plaques; experiment: Postmortem human brain; assay type: binding; conditions: for GM/WM, local hot spots in grey matter: normal control NC2, hippocampus sections 7 μm
[8] = 4.5 min post iv injection, baseline
[9] = normal control NC1, hippocampus sections 7 μm
[10] = subject AD1, hippocampus sections 7 μm
[11] = subject AD2, hippocampus sections 7 μm
[12] = 4.5 min, atomoxetine preinjection
[13] = 85 min, atomoxetine preinjection

T1 sequence (P05067 672-711 limits assumed): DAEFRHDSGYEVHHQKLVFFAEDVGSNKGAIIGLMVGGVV

| SMILES | IBAT Baseline uptake ([2]; 85 min (end of scan), baseline) | Cerebellum uptake [3, 8] [%injected dose/cc] | Frontal Cortex uptake [3, 8] [%injected dose/cc] | Brain-stem uptake ([3]; 85 min (end of scan), baseline) [%injected dose/cc] | Cerebellum uptake ([3]; 85 min, baseline) [%injected dose/cc] | Frontal Cortex uptake ([3]; 85 min, baseline) [%injected dose/cc] | GM/WM (gray matter to white matter ratio) (Aβ plaques [7]; [9]) | GM/WM, local hot spots in grey matter (Aβ plaques [7]) | GM/WM (gray matter to white matter ratio) (Aβ plaques [7]; [10]) | GM/WM (gray matter to white matter ratio) (Aβ plaques [7]; [11]) | IBAT +ATX uptake ([2]; 4.5 min (initial uptake)) | IBAT Baseline uptake [2, 8] [%Injected dose/cc] | IBAT +ATX uptake ([2]; 85 min) | Ratio uptake at 4.5 min/uptake at 85 min, IBAT +ATX [2] | Ratio uptake at 4.5 min/uptake at 85 min, IBAT Baseline ([2]; baseline) | Cerebellum +ATX uptake [3, 12] [%injected dose/cc] | Frontal Cortex +ATX uptake [3, 12] [%injected dose/cc] | Brain-stem uptake [3, 8] [%injected dose/cc] | Cerebellum +ATX uptake [3, 13] [%injected dose/cc] | Frontal Cortex +ATX uptake [3, 13] | also measured |
| --- | --- | --- | --- | --- | --- | --- | --- | --- | --- | --- | --- | --- | --- | --- | --- | --- | --- | --- | --- | --- | --- |
| CNc1ccc(-c2cc3cc(O)ccc3o2)c(F)n1 [AZD4694] |  |  |  |  |  |  |  |  |  |  |  |  |  |  |  |  |  |  |  |  | Ki (Aβ plaques [1]): 2.3 nM |
| [11CH3]Nc1ccc(-c2nc3ccc(O)cc3s2)cc1 [[^11C]PIB] | 0.056 %Injected dose/cc | 0.823 | 0.714 | 0.056 | 0.124 | 0.045 |  |  |  |  |  |  |  |  |  |  |  |  |  |  |  |
| CNc1ccc(N=Nc2ccc(N(C)C)cc2)cc1 [TAZA, 4-methylamino-4′-N,N-dimethylaminoazobenzene] |  |  |  |  |  |  |  |  |  |  |  |  |  |  |  |  |  |  |  |  | Binding affinity Relative to PIB (Aβ plaques [4]): 7.81 ^g |
| CNc1ccc(C=Cc2ccc(N(C)C)cc2)cc1 [Dalene, 4-methylamino-4′-N,N-dimethylaminostyrylbenzene] |  |  |  |  |  |  |  |  |  |  |  |  |  |  |  |  |  |  |  |  | Times weaker affinity compared to SB-13 (Aβ plaques [5]; ^125I-TZDM assay, Kung et al., 2003): approximately 5; Binding affinity relative to SB-13 (Aβ plaques [5]; compared to affinity measures of SB-13 in the same assay (^125I-TZDM; Kung et al., 2003)): (0.21) ^i; Ki (Aβ plaques [6]): 15 nM and 15.2 nM |
| CN(C)c1ccc(N=Nc2ccc(N[11CH3])cc2)cc1 [[^11C]TAZA, 4-[^11C]methylamino-4′-N,N-dimethylaminoazo-benzene] | 0.43 %Injected dose/cc and 0.429 %Injected dose/cc | 0.010 | 0.007 | 0.285 | 0.192 | 0.16 | ~1 | in grey matter (≥5) | 19.6 | 30.5 | 0.15 %Injected dose/cc and 0.148 %Injected dose/cc | 0.015 | 0.02 %Injected dose/cc and 0.016 %Injected dose/cc | 9 and 9.25 | 0.04 | 0.695 | 0.627 | 0.013 | 0.154 | 0.160 %injected dose/cc | displacement of [^11C]TAZA binding by PIB (Aβ plaques [7]; 10 μM PIB, gray matter of AD1 and AD2 hippocampus): > 90% and > 94%; gray matter to white matter ratios in AD brains (Aβ plaques [7]; AD brains, summary statement): > 20; time at which IBAT activity leveled off / plateau ([2]; baseline): ~90 min; Ratio of brainstem to frontal cortex ([3]; 85 min postinjection, baseline): 1.78; Ratio of cerebellum to frontal cortex ([3]; 85 min postinjection, baseline): 1.20; Ratio uptake at 4.5 min/uptake at 85 min, Brain-stem +ATX ([3]; atomoxetine preinjection): 4.2; Ratio uptake at 4.5 min/uptake at 85 min, Cerebellum +ATX ([3]; atomoxetine preinjection): 4.51; Ratio uptake at 4.5 min/uptake at 85 min, Frontal Cortex +ATX ([3]; atomoxetine preinjection): 3.92; ratio between initial time (4.5 min) and later time (85 min), brain regions ([3]; atomoxetine preinjection, brain regions overall): ~5; Ratio uptake at 4.5 min/uptake at 85 min, Brain-stem ([3]; baseline): 0.05; Ratio uptake at 4.5 min/uptake at 85 min, Cerebellum ([3]; baseline): 0.05; time at which brain uptake plateaued ([3]; baseline): approximately 60 min; maximum (peak) activity levels in the various brain regions ([3]; baseline): approximately 0.3 % injected dose/cc; time to approach plateau in cerebellum (CB) ([3]; baseline): approximately 50 min; reduction of brainstem to frontal cortex ratio by atomoxetine ([3]; end of scan): approximately 10% |
| CN(C)c1ccc(C=Cc2ccc(N[11CH3])cc2)cc1 [[^11C]Dalene, ^11C-methylamino-4′-dimethylaminostyrylbenzene] | 0.12 %Injected dose/cc and 0.118 %Injected dose/cc | 0.015 | 0.015 | 0.124 | 0.072 | 0.069 | ~1 | grey matter (~2) | 3.68 | 5.34 | 0.05 %Injected dose/cc and 0.054 %Injected dose/cc | 0.018 | 0.05 %Injected dose/cc | 1.08 | 0.15 | 0.788 | 0.828 | 0.011 | 0.304 | 0.30 %injected dose/cc and 0.304 %injected dose/cc | fold lower GM/WM ratio than [^11C]TAZA (Aβ plaques [7]; AD subjects): approximately 5 fold; Ratio of brainstem to frontal cortex [3, 13]: 1.75; Ratio of cerebellum to frontal cortex [3, 13]: 1.0; Ratio of brainstem to frontal cortex ([3]; 85 min postinjection, baseline): 1.80; Ratio of cerebellum to frontal cortex ([3]; 85 min postinjection, baseline): 1.04; Ratio uptake at 4.5 min/uptake at 85 min, Brain-stem +ATX ([3]; atomoxetine preinjection): 2.12; Ratio uptake at 4.5 min/uptake at 85 min, Cerebellum +ATX ([3]; atomoxetine preinjection): 2.59; Ratio uptake at 4.5 min/uptake at 85 min, Frontal Cortex +ATX ([3]; atomoxetine preinjection): 2.72; Ratio uptake at 4.5 min/uptake at 85 min, Brain-stem ([3]; baseline): 0.09; Ratio uptake at 4.5 min/uptake at 85 min, Cerebellum ([3]; baseline): 0.21; time at which brain uptake plateaued ([3]; baseline): approximately 60 min; maximum (peak) activity levels in the various brain regions ([3]; baseline): approximately 0.1 % injected dose/cc; time to approach plateau in cerebellum (CB) ([3]; baseline): approximately 40 min |
